Patent US20240067651A1 (Biohaven Therapeutics Ltd., priority 2019, published 2024)

Columns and labels:
[1] = Stability in Simulated Gastric Fluid (SGF); format: in vitro ADME; set-up: key: % parent compound remaining relative to 0-minute sample
How it was run: (§1)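 Stability was tested at 37° C in pepsin-supplemented gastric fluid, pH 1.2, and pancreatin-supplemented intestinal fluid, pH 6.8, using 2 μg/mL final compound over 0–60 minutes. Remaining parent was quantified by LC-MS/MS and expressed as a percentage of time zero.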

[2] = Stability in Simulated Intestinal Fluid (SIF); format: in vitro ADME; set-up: key: % parent compound remaining relative to 0-minute sample
How it was run: as §1

[3] = Caco-2 Permeability Assay; format: in vitro ADME, human; conditions: human
How it was run: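 Caco-2 monolayers cultured 21 days (TEER >600 […]); test article at 10 μM in HBSS/HEPES pH 7.4 transport medium, dosed apical or basolateral, ±Pgp inhibitor. Incubated 90 min at 37 °C; both compartments quantified by LC-MS/MS. Papp (A→B, B→A), efflux ratio and % recovery calculated.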

Plasma Stability = format: in vitro ADME, human
How it was run: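 Compounds incubated at 1 μM in fresh human plasma for 1 hour at 37° C, then protein-precipitated with acetonitrile/formic acid containing internal standard. Remaining parent measured by LC-MS/MS in triplicate, expressed as percent of control remaining.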

[4] = Caco-2, pH 7.4, donor 10 μM, 90 minutes, 37° C., direction not given
[5] = % remaining at 1 h, SGF with pepsin pH 1.2, 2 μg/mL, 37° C.
[6] = % remaining at 1 h, SIF with pancreatin pH 6.8, 2 μg/mL, 37° C.
[7] = % remaining at 1 h, human plasma, 1 μM, 37° C.
[8] = Caco-2, pH 7.4, no unit printed at the place (tables the 9th table and the 10th table have no head)
[9] = % remaining at 1 h in simulated gastric fluid
[10] = % remaining at 1 h in simulated intestinal fluid
[11] = Caco-2, pH 7.4, Caco-2 monolayer
[12] = % remaining at 1 h in human plasma

Papp at 90 min, 10 µM [3, 4] | SGF [1, 5] | SIF [2, 6] | human Plasma stability (Plasma Stability; [7]) | Compound | also measured
 | 96% | 70% | 18% | COCCOCCOC(=O)OCSc1nc(=O)c2c(ccn2COC(=O)OCCOCCOC)n1CCOC(C)C [Example 104, (2-{[{{[2-(2-methoxyethoxy)ethoxy]carbonyl}oxy)methyl]sulfanyl}-4-oxo-1-[2-(propan-2-yloxy)ethyl]-1H,4H,5H-pyrrolo[3,2-d]pyrimidin-5-yl)methyl 2-(2-methoxyethoxy)ethyl carbonate] | Papp at 90 min, 10 µM [3, 8]: 0.276 ×10⁻⁶ cm/s
 | 95% | 84% | 14% | COCCOCCOC(=O)OCn1ccc2c1c(=O)[nH]c(=S)n2CCOC(C)C [Example 105, 2-(2-methoxyethoxy)ethyl {4-oxo-1-[2-(propan-2-yloxy)ethyl]-2-sulfanylidene-1H,2H,3H,4H,5H-pyrrolo[3,2-d]pyrimidin-5-yl}methyl carbonate] | Papp at 90 min, 10 µM [3, 8]: 24.3 ×10⁻⁶ cm/s
 | 93% | 92% | 86% | CC(C)OCCn1c(=S)[nH]c(=O)c2c1ccn2COC(=O)N[C@H](C(=O)OC(C)(C)C)C(C)C [Example 107, tert-butyl (2S)-3-methyl-2-{[{{4-oxo-1-[2-(propan-2-yloxy)ethyl]-2-sulfanylidene-1H,2H,3H,4H,5H-pyrrolo[3,2-d]pyrimidin-5-yl}methoxy)carbonyl]amino}butanoate] | Papp at 90 min, 10 µM [3, 8]: 11.5 ×10⁻⁶ cm/s
0.094 ×10⁻⁶ cm/s | 94% | 96% | 100% | CC(C)OCCn1c(=S)[nH]c(=O)c2c1ccn2COC(=O)N[C@H](C(=O)O)C(C)C [Example 109, (2S)-3-methyl-2-{[({4-oxo-1-[2-(propan-2-yloxy)ethyl]-2-sulfanylidene-1H,2H,3H,4H,5H-pyrrolo[3,2-d]pyrimidin-5-yl}methoxy)carbonyl]amino}butanoic acid] | 
21.1 ×10⁻⁶ cm/s | 100% | 100% | 99% | CC(C)OCCn1c(=S)[nH]c(=O)c2c1ccn2C(C)OC(=O)N(CC(F)(F)F)CC(F)(F)F (centres unmarked) [Example 112, 1-{4-oxo-1-[2-(propan-2-yloxy)ethyl]-2-sulfanylidene-1H,2H,3H,4H,5H-pyrrolo[3,2-d]pyrimidin-5-yl}ethyl N,N-bis(2,2,2-trifluoroethyl)carbamate] | 
7.86 ×10⁻⁶ cm/s | 44% | 96% | 99% | CC(C)OCCn1c(=S)[nH]c(=O)c2c1ccn2C(C)OC(=O)N(C)CC(=O)OC(C)(C)C (centres unmarked) [Example 113, tert-butyl 2-{methyl [(1-{4-oxo-1-[2-(propan-2-yloxy)ethyl]-2-sulfanylidene-1H, 2H,3H,4H,5H-pyrrolo[3,2-d]pyrimidin-5-yl}ethoxy)carbonyl]amino}acetate] | 
8.05 ×10⁻⁶ cm/s | 63% | 67% | 59% | CC(C)OCCn1c(=S)[nH]c(=O)c2c1ccn2C(C)OC(=O)c1ccccc1 (centres unmarked) [Example 115, 1-{4-oxo-1-[2-(propan-2-yloxy)ethyl]-2-sulfanylidene-1H,2H,3H,4H,5H-pyrrolo[3,2-d]pyrimidin-5-yl}ethyl benzoate] | 
6.41 ×10⁻⁶ cm/s | 99% | 46% | 1% | CC(C)OCCn1c(=S)[nH]c(=O)c2c1ccn2COC(=O)c1ccccc1 [Example 116, {4-oxo-1-[2-(propan-2-yloxy)ethyl]-2-sulfanylidene-1H, 2H,3H,4H,5H-pyrrolo[3,2-d]pyrimidin-5-yl}methylbenzoate] | 
5.76 ×10⁻⁶ cm/s | 100% | 79% | 20% | CC(C)OCCn1c(=S)n(COC(=O)c2ccccc2)c(=O)c2c1ccn2COC(=O)c1ccccc1 [Example 117, {3-[(benzoyloxy)methyl]-4-oxo-1-[2-(propan-2-yloxy)ethyl]-2-sulfanylidene-1H,2H,3H,4H,5H-pyrrolo[3,2-d]pyrimidin-5-yl}methylbenzoate] | 
6.6 ×10⁻⁶ cm/s | 94% | 76% | 73% | CC(C)OCCn1c(=S)n2c(=O)c3c1ccn3COC(=O)C(C)(C)CCCCC(C)(C)C(=O)OC2 [Example 118, 5,5,10,10-Tetramethyl-16-[2-(propan-2-yloxy)ethyl]-15-sulfanylidene-3,12-dioxa-1,14,16-triazatricyclo[12.5.2.0^{17,20}]henicosa-17(20),18-diene-4,11,21-trione] | 
31.7 ×10⁻⁶ cm/s | 94% | 98% | 90% | CC(C)OCCn1c2nc(=O)c3c1ccn3COC(=O)C(C)(C)CCCCC(C)(C)C(=O)OCS2 [Example 119, 8,8,13,13-Tetramethyl-22-[2-(propan-2-yloxy)ethyl]-6,15-dioxa-17-thia-4,19,22-triazatricyclo[16.3.1.0^{4,21}]docosa-1(21),2,18-triene-7,14,20-trione] | 
 |  |  |  | CC(C)OCCn1c(=S)[nH]c(=O)c2c1ccn2COC(=O)OCCOCCNC(=O)OC(C)(C)C [Example 120] | SGF [1, 9]: 83% remaining; SIF [2, 10]: 64% remaining; Papp at 90 min, 10 µM [3, 11]: 14.9 ×10⁻⁶ cm/s; human Plasma stability (Plasma Stability; [12]): 30% remaining
 |  |  |  | CC(C)OCCn1c(SCOC(=O)OCCOCCNC(=O)OC(C)(C)C)nc(=O)c2c1ccn2COC(=O)OCCOCCNC(=O)OC(C)(C)C [Example 121] | SGF [1, 9]: 69% remaining; SIF [2, 10]: 56% remaining; Papp at 90 min, 10 µM [3, 11]: 1.19 ×10⁻⁶ cm/s; human Plasma stability (Plasma Stability; [12]): 34% remaining
 |  |  |  | CC(C)OCCn1c(=S)n(COC(=O)OCCOCCNC(=O)OC(C)(C)C)c(=O)c2c1ccn2COC(=O)OCCOCCNC(=O)OC(C)(C)C [Example 122] | SGF [1, 9]: 85% remaining; SIF [2, 10]: 22% remaining; Papp at 90 min, 10 µM [3, 11]: 19.3 ×10⁻⁶ cm/s; human Plasma stability (Plasma Stability; [12]): 50% remaining
 |  |  |  | CC(C)OCCn1c(=S)[nH]c(=O)c2c1ccn2COC(=O)OCCOCCN.O=C(O)C(F)(F)F [Example 123] | SGF [1, 9]: 97% remaining; SIF [2, 10]: 1% remaining at; Papp at 90 min, 10 µM [3, 11]: 2.44 ×10⁻⁶ cm/s; human Plasma stability (Plasma Stability; [12]): 65% remaining

Compound | Papp at 90 min, 10 µM [3, 4] | SGF [1, 5] | SIF [2, 6] | human Plasma stability (Plasma Stability; [7]) | also measured
COC(=O)[C@H](CCCCNC(=O)OC(C)(C)C)NC(=O)OCn1ccc2c1c(=O)[nH]c(=S)n2CCOC(C)C [Example 102, Methyl (2S)-6-{[(tert-butoxy)carbonyl]amino}-2-{[({4-oxo-1-[2-(propan-2-yloxy)ethyl]-2-sulfanylidene-1H,2H,3H,4H,5H-pyrrolo[3,2-d]pyrimidin-5-yl}methoxy)carbonyl]amino}hexanoate] | 1.46 ×10⁻⁶ cm/s |  |  |  | SGF ([1]; % remaining at 1 h, SGF with pepsin pH 1.2, 2 μg/mL, 37° C., listed as EXAMPLE 102): 75%; SIF ([2]; % remaining at 1 h, SIF with pancreatin pH 6.8, 2 μg/mL, 37° C., listed as EXAMPLE 102): 96%; human Plasma stability (Plasma Stability; % remaining at 1 h, human plasma, 1 μM, 37° C., listed as EXAMPLE 102): 97%
COC(=O)[C@H](CCCCNC(=O)OC(C)(C)C)NC(=O)n1ccc2c1c(=O)[nH]c(=S)n2CCOC(C)C [Example 103, Methyl (2S)-6-{[(tert-butoxy)carbonyl]amino}-2-({4-oxo-1-[2-(propan-2-yloxy)ethyl]-2-sulfanylidene-1H,2H,3H,4H,5H-pyrrolo[3,2-cl]pyrimidine-5-carbonyl}amino)hexanoate] | 13.5 ×10⁻⁶ cm/s | 96% | 96% | 92% | 
COC(=O)[C@H](CCCCN)NC(=O)OCn1ccc2c1c(=O)[nH]c(=S)n2CCOC(C)C.O=C(O)C(F)(F)F [Example 110, trifluoroacetic acid methyl (2S)-6-amino-2-{[{{4-oxo-1-[2-(propan-2-yloxy)ethyl]-2-sulfanylidene-1H,2H,3H,4H,5H-pyrrolo[3,2-d]pyrimidin-5-yl}methoxy)carbonyl]amino}hexanoate] | 0.142 ×10⁻⁶ cm/s | 81% | 45% | 62% | 
COC(=O)[C@H](CCCCNC(=O)[C@@H](NC(=O)OC(C)(C)C)C(C)C)NC(=O)OCn1ccc2c1c(=O)[nH]c(=S)n2CCOC(C)C [Example 111, methyl (2S)-6-[(2S)-2-{[(tert-butoxy)carbonyl]amino}-3-methylbutanamido]-2-{[{{4-oxo-1-[2-(propan-2-yloxy)ethyl]-2-sulfanylidene-1H,2H,3H,4H,5H-pyrrolo[3,2-d]pyrimidin-5-yl}methoxy)carbonyl]amino}hexanoate] | 0.575 ×10⁻⁶ cm/s | 87% | 74% | 85% | 
COC(=O)[C@H](CCCCNC(=O)[C@@H](N)C(C)C)NC(=O)OCn1ccc2c1c(=O)[nH]c(=S)n2CCOC(C)C.O=C(O)C(F)(F)F [Example 114, trifluoroacetic acid methyl (2S)-6-[(2S)-2-amino-3-methylbutanamido]-2-{[{{4-oxo-1-[2-(propan-2-yloxy)ethyl]-2-sulfanylidene-1H,2H,3H,4H,5H-pyrrolo[3,2-d]pyrimidin-5-yl}methoxy)carbonyl]amino}hexanoate] | 0.102 ×10⁻⁶ cm/s | 98% | 89% | 93% | 
